“And” between values parts separate entries of the source, which are not always exact repeats. Equal entries are not always repeated. Where two headings read alike, the source gives them in different places.
Legend:
[1] = cited from earlier work
[2] = system: CCI of the sciatic nerve (mechano-allodynia); experiment: CCI model of neuropathic pain, mechano-allodynia (von Frey PWT); type: in vivo, mice; settings: for effect of antagonist pretreatment on anti-allodynic effect of CI-IB-MECA or MRS1898: 15 min before CI-IB-MECA 0.6 or MRS1898 0.5 μmol/kg, DPCPX and SCH-442416 with MRS1898 only; for effect of antagonist pretreatment on anti-allodynic effect of IB-MECA: 15 min before IB-MECA 0.5 μmol/kg, MRS1523 5, DPCPX 2, SCH-442416 0.2 μmol/kg; for effect of antagonist given alone on ipsilateral or contralateral PWT: MRS1523 5, DPCPX 2, SCH-442416 0.2, naloxone 25 μmol/kg; for efficacy of IB-MECA compared with this drug: D7, time of peak reversal (FIG. 7); for ED50: Mus musculus, read-out: ED50, reversal of mechano-allodynia; for time of maximal reversal of mechano-allodynia: after single administration on D7; for ED50 at peak reversal of mechano-allodynia when combined with IB-MECA: co-administered with IB-MECA 0.2 μmol/kg; for fold less potent than IB-MECA in reversing mechano-allodynia: ratio of ED50 values, D7, time of peak reversal; for reversal of mechano-allodynia in ipsilateral paws: single dose D7, IB-MECA 0.2-2, CI-IB-MECA 0.6, MRS1898 0.5 μmol/kg i.p., morphine 0.11-35 s.c., gabapentin 18-584 i.p., amitriptyline 3-191 μmol/kg oral
Procedure: CCI model of neuropathic pain. CCI to the sciatic nerve of the left hind leg in mice was performed under general anaesthesia using the well-characterized Bennett model. Briefly, mice (weighing 25-30 g at the time of surgery) were anesthetized with 3% isoflurane/100% O2 inhalation and maintained on 2% isoflurane/100% O2 for the duration of surgery. The left thigh was shaved, scrubbed with Nolvasan® and a small incision (1-1.5 cm in length) was made in the middle of the lateral aspect of the left thigh to expose the sciatic nerve. The nerve was loosely ligated around the entire diameter of the nerve at three distinct sites (spaced 1 mm apart) using silk sutures (6.0). The surgical site was closed with a single muscle suture and a skin clip. Pilot studies established that under our experimental conditions peak mechano-allodynia develops by day 5-day 7 (D5-D7) following CCI. Test substances or their vehicles were given subcutaneously (s.c.), intraperitoneally (i.p.) or orally by gavage (0.1 ml) at peak mechano-allodynia (D7).
Behavioral testing. […] The plantar aspect of hindpaws were probed three times with calibrated von Frey filaments (Stoelting, mice: 0.07-2.00 grams; rats: 0.407-26 grams) according to the “up-and-down” method. […] Briefly, each rat was placed in a Plexiglas chamber (28×40×35-cm, wire mesh floor) and after its acclimation, a servo-controlled mechanical stimulus was applied to the plantar surface that exerted a progressively increasing punctate pressure up to 50 grams within 10 seconds. Mechanical threshold was assessed three times at each time point to yield a mean value, reported as PWT (grams). […] Mechano-hyperalgesia was assessed in rats by the Randall and Sellitto paw pressure test using an analgesiometer (Ugo Basile). The nociceptive threshold was defined as the force (grams) at which the rat withdrew its paw (cut off set at 250 grams).
Determining ED50 values. Dose response data were curve-fitted using the least sum of square method by a normalized 4-parameter, variable slope non-linear analysis of the % Reversal of Mechano-allodynia in CCI and % Prevention of Mechano-allodynia or Mechano-hyperalgesia in CIPN using GraphPad Prism (Release 5.03, GraphPad Software, Inc.) from which the ED50 was determined and reported with the 95% confidence interval (95% CI). In the CCI model, the % Reversal of Mechano-allodynia=(PWT1h−PWTD7)/(PWTD0−PWTD7)×100, where PWTD0=Paw Withdrawal Threshold (g) at D0, PWT1h=Paw Withdrawal Threshold (g) at 1 hour after the administration of IB-MECA, gabapentin, amitriptyline, or combinations of IB-MECA with gabapentin or amitriptyline, and PWTD7=Paw Withdrawal Threshold (grams) at D7 prior to drug administration.
Statistical Analysis. Data are expressed as mean±SD for n animals. Behavioral data were analyzed by two-way repeated measures ANOVA with Bonferroni comparisons (full time course studies) or one-way ANOVA Dunnett's comparisons (1 hour behavioral data). The dose response curves were compared to a globally fitted curve using the extra sum-of-squares F-test comparisons to determine whether the data represented distinct curves between treatments. Significant differences were defined at a P<0.05. All statistical analysis was performed using GraphPad Prism (v5.03, GraphPad Software, Inc.).

[3] = system: acute nociception (tail flick latency); experiment: Tail flick assay for acute nociception; type: in vivo, mice; settings: IB-MECA, MRS1898 0.5 μmol/kg i.p. at 30, 60, 120 minutes; morphine 35 μmol/kg s.c. positive control
Procedure: Tail flick and hot plate assay in mice for acute nociception. The tail flick test, which measures latency(s) of tail withdrawal from a noxious radiant heat source (Ugo Basile; model number 37360) was used to measure thermal nociceptive sensitivity in mice with baseline latencies of 3-5 seconds and a cut-off time of 15 seconds to prevent tissue injury. Tail flick latencies were taken before and at 30, 60 and 120 minutes after i.p. injection of IB-MECA, MRS1898 (0.5 μmol/kg) or its vehicle (0.1% DMSO in saline). For the hot plate test, nociceptive thresholds were determined as previously reported by our group by measuring latencies (in seconds) of mice placed in a transparent glass cylinder on a hot plate maintained at 52° C.. Responses indicative of nociception included intermittent lifting and/or licking of the hindpaws or escape behavior. Hot plate latencies were taken in mice from all groups before and after drug administration. A cut-off latency of 15 seconds was employed to prevent tissue damage.

[4] = system: paclitaxel-induced neuropathic pain; experiment: Paclitaxel-induced neuropathic pain (mechano-allodynia, mechano-hyperalgesia); type: in vivo, rats
[5] = system: SKBR3 breast cancer cells; experiment: MTT cell survival assay, SKBR3; type: cell-based, human; settings: 48 hours, MTT, SKBR3
Procedure: Cells were cultured and assayed in DMEM (SKBR3; human breast cancer cells), L15 (SW480; human colon cancer cells) or RPMI […] (RPMI 8226; human multiple myeloma cells) supplemented with heat-denatured 10% FBS and penicillin/streptomycin at 37° C., 0% (SW480) or 5% CO2 (SKBR3 and RPMI 8226), 95% humidity. The antitumor activities of these agents were measured in cells (6.25×10^4 cells/well) cultured overnight in 24-well plates (SKBR3 and SW480; BD Biosciences) or 12 mm×7.5 mm culture tubes (RPMI 8226; BD Biosciences) in complete media. […] Two naïve control wells were included as a control for 100% survival. Cell survival was determined using a MTT (3-(4,5-dimethylthiazol-2-yl)-2,5-diphenyltetrazolium bromide) assay adapted from a previously described assay. Cells were incubated with MTT (500 μg/ml) for 75 minutes at 37° C., 0% or 5% CO2, 95% humidity, removing the media and dissolving the tetrazolium crystals in isopropanol. […] The antitumor effects of IB-MECA alone were determined as % Survivability=(A560-570 nm of chemotherapeutic vehicle+IB-MECA)/(mean A560-570 nm of the naïve control wells)×100. The LD50 of each chemotherapeutic agent+IB-MECA or its vehicle was calculated using three-parameter non-linear analysis using % Survivability=(A560-570 nm of chemotherapeutic+IB-MECA or its vehicle)/(mean A560-570 nm chemotherapeutic vehicle+vehicle of IB-MECA)×100. The top and bottom plateaus were constrained using GraphPad Prism v5.03 (GraphPad Software, Inc.).

A3ARs = settings: cited from earlier work
[6] = co-administered IB-MECA 0.2 μmol/kg, D7

N.N.[Cl][Pt][Cl] [cisplatin]
incidence of CIPN ([1]; in vivo): 70-90%

CC(=O)O[C@@]12CO[C@@H]1C[C@H](O)[C@@]1(C)C(=O)[C@H](O)C3=C(C)[C@@H](OC(=O)[C@H](O)[C@@H](NC(=O)OC(C)(C)C)c4ccccc4)C[C@@](O)([C@@H](OC(=O)c4ccccc4)[C@H]21)C3(C)C [docetaxel]
incidence of CIPN ([1]; subjects receiving the drug): 60%

COc1ccc(CCCn2ncc3c2nc(N)n2nc(-c4ccco4)nc32)cc1 [SCH-442416, 2-(2-furanyl)-7-[3-(4-methoxyphenyl)propyl]-7Hpyrazolo[4,3-e][1,2,4]triazolo[1,5-C]pyrimidin-5-amine]
effect of antagonist pretreatment on anti-allodynic effect of CI-IB-MECA or MRS1898 [2]: did not prevent
effect of antagonist pretreatment on anti-allodynic effect of IB-MECA [2]: not affected
effect of antagonist given alone on ipsilateral or contralateral PWT ([2]; D7): lacked effect

CCCn1c(=O)c2[nH]c(C3CCCC3)nc2n(CCC)c1=O [DPCPX, 8-cyclopentyl-1,3-dipropylxanthine]
effect of antagonist pretreatment on anti-allodynic effect of CI-IB-MECA or MRS1898 [2]: did not prevent
effect of antagonist pretreatment on anti-allodynic effect of IB-MECA [2]: not affected
effect of antagonist given alone on ipsilateral or contralateral PWT ([2]; D7): lacked effect

CN1CC[C@]23c4c5ccc(O)c4O[C@H]2[C@@H](O)C=C[C@H]3[C@H]1C5 [morphine]
efficacy of IB-MECA compared with this drug [2]: more efficacious
effect on PWT in contralateral paws ([2]; D7 after CCI, drug alone): not in contralateral paws
ED50 [2]: 2.1 µmol/kg
time of maximal reversal of mechano-allodynia [2]: 0.5 h
enhancement of efficacy by IB-MECA [2, 6]: 1.6 fold
increase of potency by IB-MECA [2, 6]: > 2 fold
Emax, reversal of mechano-allodynia ([2]; mice, D7 after CCI, drug alone): 62±3%
ED50 at peak reversal of mechano-allodynia when combined with IB-MECA ([2]; mice, D7 after CCI): 0.98 µmol/kg
fold less potent than IB-MECA in reversing mechano-allodynia [2]: > 5 fold and 5 fold
reversal of mechano-allodynia in ipsilateral paws [2]: dose-dependent reversal of mechano-allodynia
effect on tail flick latency [3]: significant (P<0.001) increase in tail flick latencies

N.N.O=C([O-])C1(C(=O)[O-])CCC1.[Pt+2] [carboplatin]
incidence of CIPN ([1]; subjects receiving the drug): 40%

CNC(=O)[C@H]1O[C@@H](n2cnc3c(NCc4cccc(I)c4)nc(Cl)nc32)[C@H](O)[C@@H]1O [CI-IB-MECA, 2-chloro-N^6-(3-iodobenzyl)-adenosine-5′-N-methyluronamide]
effect on paclitaxel-induced neuropathic pain ([4]; 0.2 μmol/kg/d (not shown)): completely blocked
effect on PWT in contralateral paws ([2]; D7 after CCI, drug alone): had no effect
reversal of mechano-allodynia in ipsilateral paws [2]: reversed mechano-allodynia

CC(=O)O[C@H]1C(=O)[C@@]2(C)[C@H]([C@H](OC(=O)c3ccccc3)[C@]3(O)C[C@H](OC(=O)[C@H](O)[C@@H](NC(=O)c4ccccc4)c4ccccc4)C(C)=C1C3(C)C)[C@]1(OC(C)=O)CO[C@@H]1C[C@@H]2O [Paclitaxel]
LD50 [5]: 7.0 nM

CCCOC(=O)c1c(-c2ccccc2)nc(CC)c(C(=O)SCC)c1CCC [MRS1523, 3-propyl-6-ethyl-5[(ethylthio)carbonyl]-2-phenyl-4-propyl-3-pyridine-carboxylate]
effect on PWT when administered alone (vehicle groups) ([4]; IB-MECA 0.2 μmol/kg/d in any of the chemotherapy models, MRS1523 5 μmol/kg/d): lacked effect
effect of co-administered antagonist on the effects of IB-MECA ([4]; MRS1523 5 μmol/kg/d with IB-MECA 0.2 μmol/kg/d): prevented
selectivity against A1AR (A3ARs): moderate selectivity
selectivity against A2AAR and A2BAR (A3ARs): at least 1000 fold
binding to A3ARs (A3ARs; murine and rat): high affinity
effect of antagonist pretreatment on anti-allodynic effect of CI-IB-MECA or MRS1898 [2]: blocked
effect of antagonist pretreatment on anti-allodynic effect of IB-MECA [2]: prevented
effect of antagonist given alone on ipsilateral or contralateral PWT ([2]; D7): lacked effect

CN(C)CCC=C1c2ccccc2CCc2ccccc21 [amitriptyline]
efficacy of IB-MECA compared with this drug [2]: equiefficacious
effect on PWT in contralateral paws ([2]; D7 after CCI, drug alone): had no effect
ED50 [2]: 31 µmol/kg
time of maximal reversal of mechano-allodynia [2]: 1 h
increase of potency by IB-MECA [2, 6]: 2 fold
ED50 at peak reversal of mechano-allodynia when combined with IB-MECA ([2]; mice, D7 after CCI): 13 µmol/kg
fold less potent than IB-MECA in reversing mechano-allodynia [2]: > 75 fold and 75 fold
reversal of mechano-allodynia in ipsilateral paws [2]: dose-dependent reversal of mechano-allodynia

NCC1(CC(=O)O)CCCCC1 [gabapentin, 2-[1-(aminomethyl)cyclohexyl]acetic acid]
efficacy of IB-MECA compared with this drug [2]: equiefficacious
effect on PWT in contralateral paws ([2]; D7 after CCI, drug alone): had no effect
ED50 [2]: 140 µmol/kg
time of maximal reversal of mechano-allodynia [2]: 1 h
increase of potency by IB-MECA [2, 6]: > 5 fold
ED50 at peak reversal of mechano-allodynia when combined with IB-MECA ([2]; mice, D7 after CCI): 27 µmol/kg
fold less potent than IB-MECA in reversing mechano-allodynia [2]: > 350 fold
reversal of mechano-allodynia in ipsilateral paws [2]: dose-dependent reversal of mechano-allodynia

C=CCN1CC[C@]23c4c5ccc(O)c4O[C@H]2C(=O)CC[C@@]3(O)[C@H]1C5 [naloxone]
effect of antagonist given alone on ipsilateral or contralateral PWT ([2]; D7): did not affect
effect of naloxone on reversal of mechano-allodynia by A3AR agonists ([2]; naloxone 25 μmol/kg i.p. 15 minutes before IB-MECA or MRS1898 0.5 μmol/kg): did not interfere

Source: patent publication US9132131B2, “Use of adenosine A3 receptor agonists for treatment of neuropathic pain” (Saint Louis University, priority 2011, dated 2015)
